Data taken from ChEMBL document CHEMBL1151745, “Identification of potent, selective, and metabolically stable peptide antagonists to the calcitonin gene-related peptide (CGRP) receptor” (J Med Chem, 2008).
Calls of active or inactive are those of the source. The calls are words filed in the database; no cut-off is given here.

What follows are compounds tested against Calcitonin gene-related peptide type 1 receptor (Homo sapiens) (UniProt Q16602) (assay: Agonist activity at human CGRP1 receptor in human SK-N-MC cells).
Chain of Calcitonin gene-related peptide type 1 receptor (Homo sapiens) (Q16602 whole entry, looked up): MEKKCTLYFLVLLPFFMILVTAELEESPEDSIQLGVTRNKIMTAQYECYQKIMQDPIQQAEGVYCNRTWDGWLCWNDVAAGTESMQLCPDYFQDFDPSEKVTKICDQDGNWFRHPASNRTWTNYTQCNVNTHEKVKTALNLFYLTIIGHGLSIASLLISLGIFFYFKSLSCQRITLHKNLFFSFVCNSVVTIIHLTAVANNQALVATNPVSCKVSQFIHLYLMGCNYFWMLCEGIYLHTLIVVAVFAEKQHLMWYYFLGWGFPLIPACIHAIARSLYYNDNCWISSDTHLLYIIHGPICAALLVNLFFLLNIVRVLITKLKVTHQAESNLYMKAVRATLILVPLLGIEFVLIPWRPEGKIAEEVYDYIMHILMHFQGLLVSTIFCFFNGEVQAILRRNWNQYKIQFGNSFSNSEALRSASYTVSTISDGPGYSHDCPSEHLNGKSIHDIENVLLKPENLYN

Activity, inactive:
CC(C)C[C@H](NC(=O)CNC(=O)[C@H](C)NC(=O)[C@H](CC(C)C)NC(=O)[C@H](CCCNC(=N)N)NC(=O)[C@H](Cc1cnc[nH]1)NC(=O)[C@@H](NC(=O)[C@@H](NC(=O)[C@@H](N)Cc1c[nH]c2ccccc12)C(C)C)[C@@H](C)O)C(=O)N[C@@H](CC(C)C)C(=O)N[C@@H](CO)C(=O)N[C@@H](CCCNC(=N)N)C(=O)N[C@@H](CO)C(=O)NCC(=O)NCC(=O)N[C@H](C(=O)N[C@H](C(=O)N[C@@H](CCCCN)C(=O)N[C@@H](CC(N)=O)C(=O)N[C@@H](CC(N)=O)C(=O)N[C@@H](Cc1ccccc1)C(=O)N[C@H](C(=O)N1CCC[C@H]1C(=O)N[C@H](C(=O)N[C@@H](CC(N)=O)C(=O)N[C@H](C(=O)NCC(=O)N[C@@H](CO)C(=O)N[C@@H](CCCCN)C(=O)N[C@@H](C)C(=O)N[C@@H](Cc1ccccc1)C(N)=O)C(C)C)[C@@H](C)O)C(C)C)C(C)C)C(C)C, CC(=O)N[C@@H](Cc1c[nH]c2ccccc12)C(=O)N[C@H](C(=O)N[C@H](C(=O)N[C@@H](Cc1cnc[nH]1)C(=O)N[C@@H](CCCNC(N)=O)C(=O)N[C@@H](CC(C)C)C(=O)N[C@@H](C)C(=O)NCC(=O)N[C@@H](CC(C)C)C(=O)N[C@@H](CC(C)C)C(=O)N[C@@H](CO)C(=O)N[C@@H](CCCNC(N)=O)C(=O)N[C@@H](CO)C(=O)NCC(=O)NCC(=O)N[C@H](C(=O)N[C@H](C(=O)N[C@@H](CCCCNC(=N)N)C(=O)N[C@@H](CCCCN)C(=O)N[C@@H](CC(N)=O)C(=O)N[C@@H](Cc1ccccc1)C(=O)N[C@H](C(=O)N1CCC[C@H]1C(=O)N[C@H](C(=O)N[C@@H](CC(=O)O)C(=O)N[C@H](C(=O)NCC(=O)N1C[C@H](O)C[C@H]1C(=O)N[C@@H](Cc1ccccc1)C(=O)N[C@@H](C)C(=O)N[C@@H](Cc1ccccc1)C(N)=O)C(C)C)[C@@H](C)O)C(C)C)C(C)C)C(C)C)[C@@H](C)O)C(C)C, CC(=O)N[C@@H](Cc1c[nH]c2ccccc12)C(=O)N[C@H](C(=O)N[C@H]1CCC(=O)NCCCC[C@@H](C(=O)NCC(=O)N[C@@H](CC(C)C)C(=O)N[C@@H](CC(C)C)C(=O)N[C@@H](CO)C(=O)N[C@@H](CCCNC(=N)N)C(=O)N[C@@H](CO)C(=O)NCC(=O)NCC(=O)N[C@H](C(=O)N[C@H](C(=O)N[C@@H](CCCNC(=N)N)C(=O)N[C@@H](CCCCN)C(=O)N[C@@H](CC(N)=O)C(=O)N[C@@H](Cc2ccccc2)C(=O)N[C@H](C(=O)N2CCC[C@H]2C(=O)N[C@H](C(=O)N[C@@H](CC(=O)O)C(=O)N[C@H](C(=O)NCC(=O)N2CCC[C@H]2C(=O)N[C@@H](Cc2ccccc2)C(=O)N[C@@H](C)C(=O)N[C@@H](Cc2ccccc2)C(N)=O)C(C)C)[C@@H](C)O)C(C)C)C(C)C)C(C)C)NC(=O)[C@H](CC(C)C)NC(=O)[C@H](CCCNC(=N)N)NC(=O)[C@H](Cc2cnc[nH]2)NC1=O)C(C)C, CC(=O)N[C@@H](Cc1c[nH]c2ccccc12)C(=O)N[C@H](C(=O)N[C@H](C(=O)N[C@@H](Cc1cnc[nH]1)C(=O)N[C@@H](CCCNC(N)=O)C(=O)N[C@@H](CC(C)C)C(=O)N[C@@H](C)C(=O)NCC(=O)N[C@@H](CC(C)C)C(=O)N[C@@H](CC(C)C)C(=O)N[C@@H](CO)C(=O)N[C@@H](CCCNC(N)=O)C(=O)N[C@@H](CO)C(=O)NCC(=O)NCC(=O)N[C@H](C(=O)N[C@H](C(=O)N[C@@H](CCCCNC(=N)N)C(=O)N[C@@H](CCCCN)C(=O)N[C@@H](CC(N)=O)C(=O)N[C@@H](Cc1ccccc1)C(=O)N[C@H](C(=O)N1CCC[C@H]1C(=O)N[C@H](C(=O)N[C@@H](CC(=O)O)C(=O)N[C@H](C(=O)NCC(=O)N1Cc2[nH]c3ccccc3c2C[C@H]1C(=O)N[C@@H](Cc1ccccc1)C(=O)N[C@@H](C)C(=O)N[C@@H](Cc1ccccc1)C(N)=O)C(C)C)[C@@H](C)O)C(C)C)C(C)C)C(C)C)[C@@H](C)O)C(C)C
